System: model of cyclophosphamide-induced cystitis in rats
Assay: Cystometry in the model of cyclophosphamide-induced cystitis in rats
Type: in vivo, rat
Conditions: for decrease of the bladder compliance induced by cyclophosphamide: bladder capacity divided by voiding pressure
Method: Female Wistar rats (around 9 weeks old) were anesthetized with sodium pentobarbital (40 mg/kg, i.p.). After median incision of the hypogastrium, the top of bladder was incised. A catheter for use in cystometry was filled with physiological saline and then was inserted through the top hole into bladder. The other end of the catheter was fixed subcutaneously in the dorsal part. 0.1 mL Vicillin S500 (Meiji Seika Kaisha, Ltd.; 100 mg titers/mL distilled water/rat) was injected into the buttock muscle. Then, the rats were fed for 6 days or more, and subsequently subjected to the following treatment.
The model of cyclophosphamide-induced cystitis was prepared by a single dose intraperitoneal administration of cyclophosphamide (Sigma; 150 mg/kg). Distilled water is administered intraperitoneally for the control group.
The test compound of each dose was administrated orally 30 minutes before the treatment of cyclophosphamide, and 4, 20, 30 and 45 hours after the treatment of cyclophosphamide. The solvent group (hereinafter, it may be referred to as vehicle.) was administrated distilled water which is the solvent of the test compound. The following cystometry was carried out 48 hours after the treatment of cyclophosphamide.
The rats anesthetized with diethyl ether were kept in ballman cage. The tip of the indwelling catheter for use in measurement of voiding pressure was connected through a three-way valve. Another end of the three-way valve was connected to a pressure transducer, while the other end was connected to a syringe for intravesical injection which was mounted on an infusion pump. A signal of voiding pressure was recorded using an amp recorder of strain pressure
After awaking from anesthesia, saline was injected into the bladder of the rats at a rate of 2.85 mL/h. After the pattern of the micturition reflex was stable, the residual urine was removed. Afterwards, saline was injected again into the bladder at a rate of 2.85 mL/h, and the voiding pressure and the urination interval were measured. The bladder capacity was calculated from the urination interval. The bladder compliance was calculated by dividing the bladder capacity by the voiding pressure.

[1] = 1000 μg/kg orally, cyclophosphamide-induced cystitis, female Wistar rats

Compound | decrease of the bladder compliance induced by cyclophosphamide (300 μg/kg orally, 30 min before and 4, 20, 30 and 45 h after cyclophosphamide (150 mg/kg i.p.), cystometry 48 h after, FIG. 2) | decrease of the bladder capacity induced by cyclophosphamide (300 μg/kg orally, 30 min before and 4, 20, 30 and 45 h after cyclophosphamide (150 mg/kg i.p.), cystometry 48 h after, female Wistar rats, FIG. 1) | voiding pressure (oral administration, regardless of the presence of the cyclophosphamide treatment, FIG. 3) | decrease of the bladder capacity induced by cyclophosphamide [1] | decrease of the bladder compliance induced by cyclophosphamide [1]
O=C(O)CCCSCCN1C(=O)CC[C@@H]1/C=C/[C@@H](O)Cc1ccc(F)cc1 [compound 1, 4-[(2-{(2R)-2-[(1E,3S)-4-(4-fluorophenyl)-3-hydroxybut-1-enyl]-5-oxopyrrolidin-1-yl}ethyl)sulfanyl]butanoic acid] | improved | improved | decreased |  | 
methyl 4-{[2-((1R,2R,3R)-3-hydroxy-2-{(1E,3S)-3-hydroxy-4-[3-(methoxymethyl)phenyl]but-1-enyl}-5-oxocyclopenty)ethyl]sulfanyl}butanoate α-cyclodextrin clathrate [compound 2] |  |  |  | improved | improved

From patent publication US7858610B2, “Preventive and/or remedy for lower urinary tract diseases containing EP4 agonist” (Ono Pharmaceutical Co., Ltd., priority 2004, dated 2010)
